Patent US20230292776A1, “GAS PHASE TREATMENT OF PRODUCE” (priority 2022, published 2023)

Test system: Colletotrichum gloeosporioides (Cg)
Assay: Antifungal activity against Colletotrichum gloeosporioides (Cg) in wounded, infected avocados
Type: in vivo
Conditions: for reduction of the incidence of Cg mold compared to the untreated test group: vapor of 3 mL in a Petri dish; for incidence of Cg mold: day 5
Procedure: Example 7. The antifungal activity of AITC and DADS vapor against Colletotrichum gloeosporioides (Cg) was tested in avocados. All test pieces were wounded by removing the stem and infected by dispensing 1000 Cg spores suspended in 10 μL of water into the wound. The test groups consisted of avocados that were: untreated and uninfected; untreated and infected; treated by dipping in a solution of 0.1 g/L of prochloraz; exposed to the vapor of 3 mL of AITC disposed in a Petri dish; and exposed to the vapor of 3 mL of DADS disposed in a Petri dish. FIG. 9 quantifies the infection results. AITC vapor reduced the incidence of Cg mold by 97% compared to the untreated test group and 70% compared to the prochloraz treated test group. DADS vapor reduced the incidence of Cg mold by 60% compared to the untreated test group.
Example 8. The antifungal activity of a range of DADS vapor exposure times was tested against Cg in avocados. All test pieces were wounded by removing the stem and infected by dispensing 1000 Cg spores suspended in 10 μL of water into the wound. The test groups consisted of avocados that were: infected and untreated; and exposed to the vapor of 3 mL of DADS in a Petri dish for 24 hours, 48 hours, and 72 hours. FIG. 10 quantifies the infection results. Test group exposed to DADS vapor at all exposure times reduced the incidence of Cg mold compared to the untreated test group. A 24 hour DADS exposure reduced the incidence of Cg mold by 8%. A 48 hour DADS exposure reduced the incidence of Cg mold by 25%. A 72 hour DADS exposure reduced the incidence of Cg mold by 57%.
Example 9. The antifungal activity of a range of AITC and carvacrol vapor exposure times was tested against Cg in avocados. To measure the effect of the various treatments on ripening, durometer shore was taken after 7 days of incubation at ambient temperature and high humidity. All samples were wounded by removing the stem and infected by dispensing 1000 Cg spores suspended in 10 μL of water in the wound. The test groups consisted of avocados that were: infected and left untreated on the benchtop; infected and left untreated under a fume hood; exposed to the vapor of 3 mL of AITC in a Petri dish for 24 hours, 48 hours, and 72 hours; and exposed to the vapor of 3 mL of carvacrol in a Petri dish for 72 hours. FIG. 11 quantifies the infection results. […] All exposure times to AITC vapor reduced the incidence of Cg mold compared to the untreated samples. A 24 hour AITC exposure reduced the incidence of Cg mold by 90%. A 48 hour AITC exposure reduced the incidence of Cg mold by 97%. A 72 hour AITC exposure reduced the incidence of Cg mold by 83%.
Example 10. The antifungal activity of a range of AITC vapor exposure times were tested against Cg in avocados. To measure the effect of the various treatments on ripening, durometer shore was taken after 6 days of incubation at ambient temperature and high humidity. All samples were wounded by removing the stem and infected by dispensing 1000 Cg spores suspended in 10 μL of water in each wound. The test groups consisted of avocados that were: infected and left untreated on the benchtop; infected and left untreated in a fume hood; exposed to the vapor of 3 mL of AITC in a Petri dish for 24 hours, 48 hours, and 72 hours. FIG. 13 quantifies the infection results. […] All exposure times to AITC vapor reduced the incidence of Cg mold compared to the untreated samples.
Example 21. The antifungal activity of avocados exposed to AITC vapor and prochloraz was tested against Cg in avocados. To measure the effect of the various treatments on ripening, durometer shore was taken after 5 days of incubation at ambient temperature (about 20° C. to about 25° C.) and high humidity (about 88% relative humidity to about 93% relative humidity). All samples were wounded by removing the stem and infected by dispensing 1000 Cg spores suspended in 10 μL of water in the wound. […]

C=CCN=C=S [AITC, allyl isothiocyanate]
reduction of the incidence of Cg mold compared to the untreated test group (Example 7, avocados): 97% | reduction of the incidence of Cg mold compared to the prochloraz treated test group (Example 7, avocados, vapor of 3 mL, prochloraz 0.1 g/L dip): 70% | reduction of the incidence of Cg mold (Example 9, avocados, vapor of 3 mL, 24 hour exposure): 90% | reduction of the incidence of Cg mold (Example 9, avocados, vapor of 3 mL, 48 hour exposure): 97% | reduction of the incidence of Cg mold (Example 9, avocados, vapor of 3 mL, 72 hour exposure): 83% | reduction of the incidence of Cg mold (Example 10, avocados, vapor of 3 mL, 24 hour exposure): 81.5% | reduction of the incidence of Cg mold (Example 10, avocados, vapor of 3 mL, 48 hour exposure): 93.5% | reduction of the incidence of Cg mold (Example 10, avocados, vapor of 3 mL, 72 hour exposure): 86.5% | incidence of Cg mold (Example 21, 125 μL, 30 minutes): reduced the incidence of Cg mold compared to the untreated samples and the prochloraz treated sample | reduction of the incidence of Cg mold (Example 21, printed as 24 hour exposure): 90% | incidence of Cg mold (Example 22, AITC vapor 30 minutes): reduced the incidence of Cg mold compared to the untreated samples, the samples treated with coating agent, and the prochloraz treated sample

C=CCSSCC=C [DADS, diallyl disulfide]
reduction of the incidence of Cg mold compared to the untreated test group (Example 7, avocados): 60% | reduction of the incidence of Cg mold (Example 8, avocados, vapor of 3 mL, 24 hour exposure): 8% | reduction of the incidence of Cg mold (Example 8, avocados, vapor of 3 mL, 48 hour exposure): 25% | reduction of the incidence of Cg mold (Example 8, avocados, vapor of 3 mL, 72 hour exposure): 57%
